Data reported in the NIST ThermoML archive (doi:10.1016/j.fluid.2010.03.010).
Numbers after ± are expanded uncertainties.

Settings: for surface tension liquid-gas: Wilhelmg Plate Tensimeter; for mass density: Liquid, Vibrating tube method

CCOS(=O)(=O)[O-].CCn1cc[n+](C)c1 [1-ethyl-3-methylimidazolium ethyl sulfate]
Settings | surface tension liquid-gas [mN/m]
292.91 K | 47.16 ± 1.7
298.26 K | 46.9 ± 1.7
303 K | 46.59 ± 1.7
308.61 K | 46.35 ± 1.7
313.41 K | 46.12 ± 1.7
322.71 K | 45.5 ± 1.7
332.09 K | 45.08 ± 1.6

Settings | mass density [kg/m3]
293.15 K, 100 kPa | 1241.3 ± 9.9
293.15 K, 101.33 kPa | 1241.37 ± 9.9
293.15 K, 250 kPa | 1241.4 ± 9.9
293.15 K, 500 kPa | 1241.4 ± 9.9
293.15 K, 1000 kPa | 1241.7 ± 9.9
293.15 K, 1990 kPa | 1242.1 ± 9.9
293.15 K, 4990 kPa | 1243.3 ± 10
293.15 K, 10010 kPa | 1245.3 ± 10
293.15 K, 14990 kPa | 1247.2 ± 10
293.15 K, 20000 kPa | 1249.2 ± 10
293.15 K, 24990 kPa | 1251.1 ± 10
293.15 K, 30010 kPa | 1253 ± 10
293.15 K, 35000 kPa | 1254.8 ± 10
293.15 K, 40000 kPa | 1256.6 ± 10
293.15 K, 45000 kPa | 1258.4 ± 10
293.15 K, 50000 kPa | 1260.2 ± 10
293.15 K, 55000 kPa | 1262 ± 10
293.15 K, 60000 kPa | 1263.7 ± 10
294.15 K, 101.33 kPa | 1240.67 ± 9.9
295.15 K, 101.33 kPa | 1239.97 ± 9.9
296.15 K, 101.33 kPa | 1239.28 ± 9.9
297.15 K, 101.33 kPa | 1238.58 ± 9.9
298.15 K, 101.33 kPa | 1237.88 ± 9.9
299.15 K, 101.33 kPa | 1237.19 ± 9.9
300.15 K, 101.33 kPa | 1236.5 ± 9.9
301.15 K, 101.33 kPa | 1235.81 ± 9.9
302.15 K, 101.33 kPa | 1235.12 ± 9.9
303.15 K, 100 kPa | 1234.3 ± 9.9
303.15 K, 101.33 kPa | 1234.43 ± 9.9
303.15 K, 250 kPa | 1234.4 ± 9.9
303.15 K, 500 kPa | 1234.5 ± 9.9
303.15 K, 1000 kPa | 1234.7 ± 9.9
303.15 K, 2010 kPa | 1235.1 ± 9.9
303.15 K, 4990 kPa | 1236.3 ± 9.9
303.15 K, 10010 kPa | 1238.4 ± 9.9
303.15 K, 14990 kPa | 1240.4 ± 9.9
303.15 K, 20000 kPa | 1242.4 ± 10
303.15 K, 24990 kPa | 1244.3 ± 10
303.15 K, 30010 kPa | 1246.3 ± 10
303.15 K, 35010 kPa | 1248.1 ± 10
303.15 K, 40000 kPa | 1250 ± 10
303.15 K, 45000 kPa | 1251.8 ± 10
303.15 K, 50000 kPa | 1253.6 ± 10
303.15 K, 55000 kPa | 1255.4 ± 10
303.15 K, 60000 kPa | 1257.1 ± 10
304.15 K, 101.33 kPa | 1233.74 ± 9.9
305.15 K, 101.33 kPa | 1233.05 ± 9.9
306.15 K, 101.33 kPa | 1232.37 ± 9.9
307.15 K, 101.33 kPa | 1231.69 ± 9.9
308.15 K, 101.33 kPa | 1231 ± 9.9
309.15 K, 101.33 kPa | 1230.32 ± 9.8
310.15 K, 101.33 kPa | 1229.64 ± 9.8
311.15 K, 101.33 kPa | 1228.96 ± 9.8
312.15 K, 101.33 kPa | 1228.28 ± 9.8
313.15 K, 100 kPa | 1227.5 ± 9.8
313.15 K, 101.33 kPa | 1227.61 ± 9.8
313.15 K, 250 kPa | 1227.5 ± 9.8
313.15 K, 500 kPa | 1227.6 ± 9.8
313.15 K, 2000 kPa | 1228.3 ± 9.8
313.15 K, 4990 kPa | 1229.5 ± 9.8
313.15 K, 10010 kPa | 1231.7 ± 9.9
313.15 K, 14990 kPa | 1233.7 ± 9.9
313.15 K, 20000 kPa | 1235.7 ± 9.9
313.15 K, 25000 kPa | 1237.6 ± 9.9
313.15 K, 30010 kPa | 1239.6 ± 9.9
313.15 K, 35000 kPa | 1241.5 ± 10
313.15 K, 40000 kPa | 1243.4 ± 10
313.15 K, 44990 kPa | 1245.3 ± 10
313.15 K, 50000 kPa | 1247.1 ± 10
313.15 K, 54990 kPa | 1248.9 ± 10
313.15 K, 60000 kPa | 1250.7 ± 10
314.15 K, 101.33 kPa | 1226.93 ± 9.8
315.15 K, 101.33 kPa | 1226.25 ± 9.8
316.15 K, 101.33 kPa | 1225.58 ± 9.8
317.15 K, 101.33 kPa | 1224.9 ± 9.8
318.15 K, 101.33 kPa | 1224.23 ± 9.8
319.15 K, 101.33 kPa | 1223.56 ± 9.8
320.15 K, 101.33 kPa | 1222.89 ± 9.8
321.15 K, 101.33 kPa | 1222.21 ± 9.8
322.15 K, 101.33 kPa | 1221.54 ± 9.8
323.15 K, 100 kPa | 1220.7 ± 9.8
323.15 K, 101.33 kPa | 1220.88 ± 9.8
323.15 K, 250 kPa | 1220.8 ± 9.8
323.15 K, 500 kPa | 1220.9 ± 9.8
323.15 K, 1010 kPa | 1221.1 ± 9.8
323.15 K, 2010 kPa | 1221.6 ± 9.8
323.15 K, 4990 kPa | 1222.9 ± 9.8
323.15 K, 10010 kPa | 1225 ± 9.8
323.15 K, 14990 kPa | 1227.1 ± 9.8
323.15 K, 20010 kPa | 1229.1 ± 9.8
323.15 K, 25000 kPa | 1231.1 ± 9.9
323.15 K, 30010 kPa | 1233.1 ± 9.9
323.15 K, 35000 kPa | 1235.1 ± 9.9
323.15 K, 40000 kPa | 1237 ± 9.9
323.15 K, 45000 kPa | 1238.9 ± 9.9
323.15 K, 50000 kPa | 1240.8 ± 10
323.15 K, 55000 kPa | 1242.6 ± 10
323.15 K, 60000 kPa | 1244.5 ± 10
324.15 K, 101.33 kPa | 1220.21 ± 9.8
325.15 K, 101.33 kPa | 1219.54 ± 9.8
326.15 K, 101.33 kPa | 1218.87 ± 9.8
327.15 K, 101.33 kPa | 1218.21 ± 9.8
328.15 K, 101.33 kPa | 1217.54 ± 9.8
329.15 K, 101.33 kPa | 1216.88 ± 9.7
330.15 K, 101.33 kPa | 1216.21 ± 9.7
331.15 K, 101.33 kPa | 1215.55 ± 9.7
332.15 K, 101.33 kPa | 1214.89 ± 9.7
333.15 K, 100 kPa | 1214.1 ± 9.7
333.15 K, 101.33 kPa | 1214.23 ± 9.7
333.15 K, 250 kPa | 1214.1 ± 9.7
333.15 K, 500 kPa | 1214.2 ± 9.7
333.15 K, 1000 kPa | 1214.4 ± 9.7
333.15 K, 2010 kPa | 1214.9 ± 9.7
333.15 K, 5000 kPa | 1216.2 ± 9.7
333.15 K, 10010 kPa | 1218.4 ± 9.8
333.15 K, 14990 kPa | 1220.5 ± 9.8
333.15 K, 20000 kPa | 1222.7 ± 9.8
333.15 K, 24990 kPa | 1224.7 ± 9.8
333.15 K, 30000 kPa | 1226.7 ± 9.8
333.15 K, 34990 kPa | 1228.7 ± 9.9
333.15 K, 40000 kPa | 1230.7 ± 9.9
333.15 K, 45020 kPa | 1232.6 ± 9.9
333.15 K, 50000 kPa | 1234.5 ± 9.9
333.15 K, 54990 kPa | 1236.4 ± 9.9
333.15 K, 60000 kPa | 1238.3 ± 9.9
334.15 K, 101.33 kPa | 1213.56 ± 9.7
335.15 K, 101.33 kPa | 1212.9 ± 9.7
336.15 K, 101.33 kPa | 1212.24 ± 9.7
337.15 K, 101.33 kPa | 1211.58 ± 9.7
338.15 K, 101.33 kPa | 1210.92 ± 9.7
339.15 K, 101.33 kPa | 1210.26 ± 9.7
340.15 K, 101.33 kPa | 1209.6 ± 9.7
341.15 K, 101.33 kPa | 1208.95 ± 9.7
